Results as given in patent US6831080B2, “Cinnamide derivatives as KCNQ potassium channel modulators” (Bristol-Myers Squibb Company, priority 2001, dated 2004).

What was measured:
[1] = system: nerve injury-induced tactile allodynia (L5/L6 ligation), Sprague Dawley rats; experiment: Chung model of neuropathic pain (Chung surgery and von Frey test); format: in vivo, rat; conditions: i.v., von Frey thresholds over 90 min
Description: To test agents for activity against peripheral mononeuropathy nerve injury-induced tactile allodynia, male Sprague Dawley rats (wt. 120-160 g) were surgically prepared with unilateral tight ligation of spinal nerves L5 and L6 following the method of Kim and Chung (Kim S. H., Chung J. M. (1992) Pain, September;50(3):355-63). After 3-4 weeks recovery, paw withdrawal to light touch was assessed as described by Chaplan et al. (Chaplan S. R., et al., (1994) J. Neurosci Methods, July;53(1):55-63). In brief, rats are placed in a plastic cage with a wire mesh bottom and allowed to acclimate for 15-30 minutes, until cage exploration and grooming stops. The plantar surface of each hind paw is touched with a series of von Frey hairs with varying stiffness requiring a known force to buckle to determine the nociceptive threshold. Adult male Sprague Dawley rats (avg. wt. 340 g) were tested in the present study. After acclimation, baseline von Frey thresholds were assessed for the injured hindpaw at −15 min. All test compounds were delivered at 0 min by the intravenous (i.v.) route in a volume of 0.5-2 ml/kg. The vehicle for test compounds was 100% PEG-400. For gabapentin the vehicle was deionized H2O. Animals were tested in one of the following 4 treatment conditions: (a) PEG400, (b) gabapentin (Neurontin) 100 mg/kg, (c) test compounds 3 mg/kg and (d) test compounds 10 mg/kg. Following drug administration, von Frey thresholds are measured at 15, 30, 60 and 90 min. Data were analyzed by a 2-way repeated measures analysis of variance followed by Dunnett's test (p<0.05). Experimenters were kept blind to the treatment condition of rats they tested.
Reversal of neuropathic pain behavior may be expressed as a percentage (0-100%) of the maximum possible effect, over and above the vehicle effects. Specifically, drug effects can be described in terms Δ% MPE according to the following equation: [formula]
AUCdrug=area under the curve for von Frey thresholds of the drug-treated group;
AUCvehicle=area under the curve for von Frey thresholds in the vehicle group;
Time=duration of post-drug testing period (90 min); and
Max=maximum von Frey threshold (15 g).
For example, a compound which immediately reversed neuropathic pain behavior to normal levels, such that animals only responded to the highest von Frey filament (15 g), and maintained normal levels through out the post-drug testing period (90 min) would be calculated as Δ% MPE=100%.

[2] = system: stretched attend postures, BalbC/HSD mice; experiment: Canopy test for anxiety: stretched attend postures (SAPs); format: in vivo, mouse; conditions: for % Reduction SAPs: i.v., mouse
Source text: The purpose of the Canopy test is to investigate the potential of compounds of Formula I as effective treatments for anxiety by examining an integral component of the risk assessment repertoire of defensive behaviors, the stretched attend posture (SAPs). […] This behavior is investigatory, and is considered an important behavioral indicator of anxiety in mice (Grewal et al., 1997). In brief, mice are placed on an elevated circular platform with a covered space in the middle, and an open space surrounding the covered zone. The number of SAPs the animals makes when exploring this environment are measured.
Subjects: Male BalbC/HSD mice (Harlan Sprague Dawley) weighing approximately 20-25 g at the beginning of the experiment, were used. Animals were group housed 4-5 per cage, in standard shoebox cages and maintained on a 12:12 h light-dark cycle (lights on at 0600). All animals were allowed food and water ad libitum throughout the procedure.
Apparatus: The test apparatus is comprised of a black plexiglas circular platform (70 cm diameter) elevated 60 cm above the floor. A clear red plexiglas (translucent) ‘canopy’ (38 cm diameter) is supported 4 cm directly above the platform by a central pillar, effectively dividing the platform into an inner, covered zone (beneath the canopy) and an outer, exposed zone. The apparatus is illuminated by normal room lighting.
Procedure: On test days mice are transported in their home cage to the testing room which is free of noise/distraction and the mice are injected with the compound of choice, prior to testing. For the KCNQ compounds, when administered IV, pretreatment time is 15 minutes. For oral administration, pretreatment time is 1 hour. Following the pretreatment, the animal is placed in the covered zone of the platform, always oriented in the same direction, facing the pillar. For 5 minutes the animals are allowed to freely explore the apparatus. The dependent variable is the number of Stretched Attend Postures, which are scored by an observer blind to treatment condition. Data were analyzed by an overall analysis of variance followed by Dunnett's post hoc tests. An effect was considered significant if p<0.05.
All test compounds are administered in a volume of 10 ml/kg. Vehicle and buspirone (as the positive control) treated mice were run with each experiment, and buspirone was dissolved in the same vehicle as used per each compound. Compounds of Formula I were administered IV, in a vehicle containing 10% PEG400/5% Tween/85% water, warmed on a hot plate.

[3] = system: cortical spreading depression (KCl application), Long-Evans rats; experiment: In vivo electrophysiology: number of cortical spreading depressions produced by KCl application; conditions: 1 mg/kg, i.v., 15 min prior to KCl; rat
Source text: Male Long-Evans rats (300-450 g) were used in the present studies (Harlan). Rats were anesthetized with urethane anesthesia (1.2 g/kg i.p.) and placed in a stereotaxic frame. Under anesthesia a Silastic catheter was placed in the jugular vein of the rats. The skull was exposed using a scalpel. A small hole (approximately 2 mm by 3 mm) was drilled in to the skull rostral to the lambdoid suture using a microdrill and steel burr. The dura was disrupted and a drop of mineral oil was placed in this hole to prevent dehydration of the underlying cortex. Ultimately this hole was used for the application of crystalline KCl (described below).
Two additional holes were place in the skull unilaterally at 4 and 8 mm rostral to the application hole. Silver wire electrodes were placed in these latter holes and secured to the skull using acrylic cement. A similar silver wire electrode was sutured to the nuchal muscle to serve as a reference electrode. Electrical DC recordings were obtained using a standard differential amplifier (Warner, DP-304) and commercially available data acquisition equipment (Cambridge Electronic Design, 1401 A-D converter and Spike2 software).
All experimental procedures were conducted while the rats were maintained under anesthesia. Rats were injected with test compound, valproic acid or vehicle (100% PEG-400) 15 min prior to the application of crystalline KCl to the application site described above. All injections were given via the jugular vein at a volume of ≦0.5 ml/kg. Only one treatment was tested per animal. The effect of valproic acid was also determined in this study due to the fact that Depakote™ (divalproex sodium) is one of only three drugs currently indicated for the prophylatic treatment of migraine headache. Valproic acid (30-200 mg/kg i.v.) was obtained from Sigma Chemical Company and was dissolved in a vehicle of isotonic saline.
KCl was applied to the application site for 10 min and was then removed using a saline soaked cotton swab. Mineral oil was subsequently reapplied to the application site. Typically, this application produced a long-lasting series of spreading depressions. The number of spreading depressions produced by this KCl application was the primary measure used to access the effectiveness of compounds in this assay.
Data were analyzed using analyses of variance followed by the Dunnett post-hoc test for pairwise comparisons, when appropriate. A difference was considered significant when p≦0.05.
The effect of representative compounds of Formula I on spreading depression is expressed as the percent reduction from vehicle control and is listed in Table 3.

Compound	AUC (Δ% MPE) ([1]; 3 mg/kg)	% Reduction SAPs ([2]; 1.25 mg/kg)	% Reduction (number of spreading depressions, from vehicle control) [3]	AUC (Δ% MPE) ([1]; 10 mg/kg)	% Reduction SAPs ([2]; 30 mg/kg)	Stretched attend postures, percent of vehicle control ([2]; separate experiments with a vehicle control, dose not given)	% Reduction SAPs ([2]; 10 mg/kg)
C[C@H](NC(=O)/C=C/c1ccc(F)cc1)c1ccc2ccccc2c1 [Example 1, (S)-3-(4-Fluoro-phenyl)-N-(1-naphthalen-2-yl-ethyl)acrylamide]	8 (3 mg/kg, i.v.) Δ% MPE	44 (1.25 mg/kg, iv.) %	25 (1 mg/kg, i.v.) %	–	–	–	–
C[C@H](NC(=O)/C=C/c1ccccc1)c1cccc(N2CCOCC2)c1 [Example 82, (S)-3-Phenyl-N-[1-(3-morpholin-4-yl-phenyl)ethyl]acrylamide]	–	–	27 (1 mg/kg, i.v.) %	25 (10 mg/kg, i.v.) Δ% MPE	28 (30 mg/kg, i.v.) %	75 % of vehicle control	–
C[C@H](NC(=O)/C=C/c1ccc(F)cc1)c1ccc(F)c(N2CCOCC2)c1 [Example 169, (S)-N-[1-(4-Fluoro-3-morpholin-4-yl-phenyl)-ethyl]-3-(4-fluoro-phenyl)-acrylamide]	–	–	25 (1 mg/kg, i.v.) %	31 (10 mg/kg,i.v.) Δ% MPE	–	–	18 (10 mg/kg, i.v.) %
